Data as given in patent publication US9296694B2, “Azacyclic compounds” (ACADIA Pharmaceuticals Inc., priority 2000, dated 2016).
Structures can show the parent of a compound that is named as a salt.

How the values were obtained:
Test in all cases: R-SAT selectivity profile of 26HCH16D
alpha1b/B = molecular target: T1, alpha1b/B (Mesocricetus auratus, UniProt P18841); type: cell-based, hamster; details: 4 doses in duplicate (3, 30, 300, 3000 nM)
T1 construct: expressed in transfected cells; host or cells: NIH3T3, pSI vector
T1 sequence (P18841 1-515): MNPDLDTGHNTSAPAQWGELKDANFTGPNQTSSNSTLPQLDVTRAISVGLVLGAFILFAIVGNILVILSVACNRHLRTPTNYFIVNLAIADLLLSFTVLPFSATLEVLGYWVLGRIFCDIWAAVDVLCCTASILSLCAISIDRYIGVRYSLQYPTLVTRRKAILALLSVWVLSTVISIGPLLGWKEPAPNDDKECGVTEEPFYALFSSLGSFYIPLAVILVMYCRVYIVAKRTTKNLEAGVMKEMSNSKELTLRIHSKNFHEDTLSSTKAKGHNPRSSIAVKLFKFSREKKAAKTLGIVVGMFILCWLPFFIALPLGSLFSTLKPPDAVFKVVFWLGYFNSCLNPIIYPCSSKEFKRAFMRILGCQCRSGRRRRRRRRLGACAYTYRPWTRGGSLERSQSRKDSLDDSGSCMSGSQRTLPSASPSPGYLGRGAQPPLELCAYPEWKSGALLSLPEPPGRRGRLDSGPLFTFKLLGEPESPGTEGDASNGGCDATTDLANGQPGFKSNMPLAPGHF
Method: The functional receptor assay, Receptor Selection and Amplification Technology (R-SAT), was used (with minor modifications from that previously described U.S. Pat. No. 5,707,798) to screen compounds for efficacy at the 5-HT2A receptor. Briefly, NIH3T3 cells were grown in 96 well tissue culture plates to 70-80% confluence. Cells were transfected for 12-16 hours with plasmid DNAs using superfect (Qiagen Inc.) as per manufacture's protocols. R-SAT's were generally performed with 50 ng/well of receptor and 20 ng/well of Beta-galactosidase plasmid DNA. All receptor and G-protein constructs used were in the pSI mammalian expression vector (Promega Inc) as described in U.S. Pat. No. 5,707,798. The 5HT2A receptor gene was amplified by nested PCR from brain cDNA using the oligodeoxynucleotides based on the published sequence (see Saltzman et. al. Biochem. Biophys. Res. Comm. 181:1469-78 (1991)). Large-scale transfections, cells were transfected for 12-16 hours, then trypsinized and frozen in DMSO. […] Media was then removed from the plates and marker gene activity was measured by the addition of the beta-galactosidase substrate ONPG (in PBS with 5% NP-40). The resulting colorimetric reaction was measured in a spectrophotometric plate reader (Titertek Inc.) at […]. All data were analyzed using the computer program XLFit (IDBSm). […]

5HT2C = molecular target: T2, 5HT2C (Homo sapiens, UniProt P28335); type: cell-based; details: Inverse Agonist; 4 dose profiling
T2 construct: expressed in transfected cells; host or cells: NIH3T3, pSI vector
T2 sequence (P28335 33-458): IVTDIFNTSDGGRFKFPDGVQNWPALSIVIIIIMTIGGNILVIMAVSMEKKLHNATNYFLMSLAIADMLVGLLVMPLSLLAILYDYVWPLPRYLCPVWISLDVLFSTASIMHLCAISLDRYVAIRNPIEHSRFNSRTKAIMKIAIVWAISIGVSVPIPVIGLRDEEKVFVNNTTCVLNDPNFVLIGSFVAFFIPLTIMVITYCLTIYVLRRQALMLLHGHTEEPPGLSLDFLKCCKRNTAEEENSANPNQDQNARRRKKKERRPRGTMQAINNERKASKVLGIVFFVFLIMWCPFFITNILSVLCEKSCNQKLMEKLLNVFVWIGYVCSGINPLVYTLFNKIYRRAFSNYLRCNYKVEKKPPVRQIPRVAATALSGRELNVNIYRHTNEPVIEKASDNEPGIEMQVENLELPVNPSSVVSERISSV
Method: (§1) The functional receptor assay, Receptor Selection and Amplification Technology (R-SAT), was used (with minor modifications from that previously described U.S. Pat. No. 5,707,798) to screen compounds for efficacy at the 5-HT2A receptor. Briefly, NIH3T3 cells were grown in 96 well tissue culture plates to 70-80% confluence. Cells were transfected for 12-16 hours with plasmid DNAs using superfect (Qiagen Inc.) as per manufacture's protocols. R-SAT's were generally performed with 50 ng/well of receptor and 20 ng/well of Beta-galactosidase plasmid DNA. All receptor and G-protein constructs used were in the pSI mammalian expression vector (Promega Inc) as described in U.S. Pat. No. 5,707,798. The 5HT2A receptor gene was amplified by nested PCR from brain cDNA using the oligodeoxynucleotides based on the published sequence (see Saltzman et. al. Biochem. Biophys. Res. Comm. 181:1469-78 (1991)). Large-scale transfections, cells were transfected for 12-16 hours, then trypsinized and frozen in DMSO. Frozen cells were later thawed, plated at 10,000-40,000 cells per well of a 96 well plate that contained drug. With both methods, cells were then grown in a humidified atmosphere with 5% ambient CO2 for five days. Media was then removed from the plates and marker gene activity was measured by the addition of the beta-galactosidase substrate ONPG (in PBS with 5% NP-40). The resulting colorimetric reaction was measured in a spectrophotometric plate reader (Titertek Inc.) at […]. All data were analyzed using the computer program XLFit (IDBSm). Efficacy is the percent maximal repression compared to repression by a control compound (ritanserin in the case of 5HT2A). pIC50 is the negative of the log(IC50), where IC50 is the calculated concentration in Molar that produces 50% maximal repression.
(§2) R-SAT assays (as described in Example 42) were carried out with cells transfected with receptors (listed below) to determine the receptor selectivity profile for compound 26HCH16D. 5HT2A inverse agonist data (IC50 nM; % efficacy) were derived from detailed dose response curves (7 points in triplicate).

5HT2B = molecular target: T3, 5HT2B (Homo sapiens, UniProt P41595); type: cell-based; details: Antagonist; 4 dose profiling
T3 construct: expressed in transfected cells; host or cells: NIH3T3, pSI vector
Method: as §1, §2

alpha1c/A = molecular target: T4, alpha1c/A (Homo sapiens, UniProt P35348); type: cell-based
T4 construct: expressed in transfected cells; host or cells: NIH3T3, pSI vector
T4 sequence (P35348 1-466): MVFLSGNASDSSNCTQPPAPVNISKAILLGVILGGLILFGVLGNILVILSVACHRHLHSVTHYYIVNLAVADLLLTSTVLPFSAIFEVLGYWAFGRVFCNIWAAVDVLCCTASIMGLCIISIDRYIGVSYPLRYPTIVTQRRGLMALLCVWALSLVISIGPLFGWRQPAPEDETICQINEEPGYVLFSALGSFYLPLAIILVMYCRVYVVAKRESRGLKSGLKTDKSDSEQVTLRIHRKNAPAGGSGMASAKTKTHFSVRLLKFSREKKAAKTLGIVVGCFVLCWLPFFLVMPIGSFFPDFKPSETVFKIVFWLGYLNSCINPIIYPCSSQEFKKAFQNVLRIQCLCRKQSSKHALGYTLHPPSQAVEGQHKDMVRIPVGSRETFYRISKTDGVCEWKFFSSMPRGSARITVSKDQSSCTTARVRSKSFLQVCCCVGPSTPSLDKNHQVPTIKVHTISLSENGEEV
Method: as §1, §2

D2 = molecular target: T5, D2 (Homo sapiens, UniProt P14416); type: cell-based
T5 construct: expressed in transfected cells; host or cells: NIH3T3, pSI vector
Method: as §1, §2

5HT1E = molecular target: T6, 5HT1E (Homo sapiens, UniProt P28566); type: cell-based; details: Agonist; 4 doses in duplicate (3, 30, 300, 3000 nM)
T6 construct: expressed in transfected cells; host or cells: NIH3T3, pSI vector
Method: as §1, §2

[1] = Agonist, 4 doses in duplicate (3, 30, 300, 3000 nM)

T5 sequence (P14416 whole entry): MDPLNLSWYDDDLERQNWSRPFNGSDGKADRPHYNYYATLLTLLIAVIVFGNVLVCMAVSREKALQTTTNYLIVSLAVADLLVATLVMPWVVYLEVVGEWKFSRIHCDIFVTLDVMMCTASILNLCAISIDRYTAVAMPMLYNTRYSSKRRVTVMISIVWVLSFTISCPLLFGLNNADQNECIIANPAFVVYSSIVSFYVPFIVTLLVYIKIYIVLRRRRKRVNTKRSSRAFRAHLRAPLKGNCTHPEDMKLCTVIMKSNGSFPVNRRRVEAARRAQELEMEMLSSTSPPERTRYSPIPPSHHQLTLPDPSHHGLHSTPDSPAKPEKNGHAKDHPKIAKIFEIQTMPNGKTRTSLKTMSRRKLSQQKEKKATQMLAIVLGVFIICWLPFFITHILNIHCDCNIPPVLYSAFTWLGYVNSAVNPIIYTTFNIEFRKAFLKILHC
T3 sequence (P41595 whole entry): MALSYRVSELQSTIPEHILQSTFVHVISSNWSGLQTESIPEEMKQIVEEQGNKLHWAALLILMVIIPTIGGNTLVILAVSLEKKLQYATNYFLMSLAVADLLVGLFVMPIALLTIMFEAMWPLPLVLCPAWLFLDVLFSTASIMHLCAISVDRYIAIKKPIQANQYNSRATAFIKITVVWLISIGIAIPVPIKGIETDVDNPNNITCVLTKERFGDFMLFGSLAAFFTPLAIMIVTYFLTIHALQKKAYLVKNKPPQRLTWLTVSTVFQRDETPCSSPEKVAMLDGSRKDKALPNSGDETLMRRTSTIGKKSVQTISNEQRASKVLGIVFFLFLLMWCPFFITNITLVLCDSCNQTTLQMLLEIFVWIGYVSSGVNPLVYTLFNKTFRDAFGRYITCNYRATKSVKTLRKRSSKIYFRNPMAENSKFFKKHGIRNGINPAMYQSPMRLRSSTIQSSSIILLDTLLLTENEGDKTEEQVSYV
T6 sequence (P28566 whole entry): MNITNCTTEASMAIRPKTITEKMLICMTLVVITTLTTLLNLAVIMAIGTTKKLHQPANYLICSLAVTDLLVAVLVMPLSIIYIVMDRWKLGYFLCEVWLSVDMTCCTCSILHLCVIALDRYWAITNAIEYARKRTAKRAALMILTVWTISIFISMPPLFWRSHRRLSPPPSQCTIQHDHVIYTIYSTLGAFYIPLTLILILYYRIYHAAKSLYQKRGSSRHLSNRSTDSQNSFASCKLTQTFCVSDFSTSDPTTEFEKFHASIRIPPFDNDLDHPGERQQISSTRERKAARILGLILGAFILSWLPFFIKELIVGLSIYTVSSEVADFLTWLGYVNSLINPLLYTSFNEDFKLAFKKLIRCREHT

With `Cc1ccc(CN(C(=O)NCc2ccccc2)C2CCN(Cc3ccccc3)CC2)cc1` [Compound 26HCH16D, N-((4-Methylphenyl)methyl)-N-(1-(phenylmethyl)piperidin-4-yl)-N′-phenylmethylcarbamide hydrochloride] the Efficacy (alpha1b/B; Agonist) was “nr (nr=activity less than 30% at all doses tested (3, 30, 300, 3000 nM), therefore EC50/IC50 greater than 3000 nM))”, the Efficacy (alpha1b/B; Antagonist) was “nr (nr=activity less than 30% at all doses tested (3, 30, 300, 3000 nM), therefore EC50/IC50 greater than 3000 nM))” and the “initial concentration at which at least 30% efficacy observed” value (5HT2C) was 3000 nM. The “initial concentration at which at least 30% efficacy observed” value (5HT2B) was 3000 nM, the Efficacy (alpha1c/A; [1]) was “nr (nr=activity less than 30% at all doses tested (3, 30, 300, 3000 nM), therefore EC50/IC50 greater than 3000 nM))” and the “initial concentration at which at least 30% efficacy observed” value (alpha1c/A; Antagonist, 4 dose profiling) was 3000 nM. For the same compound, the Efficacy (D2; [1]) was “nr (nr=activity less than 30% at all doses tested (3, 30, 300, 3000 nM), therefore EC50/IC50 greater than 3000 nM))”, the “initial concentration at which at least 30% efficacy observed” value (D2; Antagonist, 4 dose profiling) was 3000 nM and the Efficacy (5HT1E) was “nr (nr=activity less than 30% at all doses tested (3, 30, 300, 3000 nM), therefore EC50/IC50 greater than 3000 nM))”.
